From ChEMBL document CHEMBL4622870, “Design, synthesis and evaluation of hydrazine and acyl hydrazone derivatives of 5-pyrrolidin-2-one as antifungal agents” (Bioorg Med Chem Lett, 2020)

Legend:
[1] = tested on: Fusarium solani; experiment: Antifungal activity against Fusarium solani assessed as fungal growth inhibition at 100 ug/ml by micro-dilution method relative to control; assay type: functional; conditions: read-out: GI
[2] = tested on: Paecilomyces variotii; experiment: Antifungal activity against Paecilomyces variotii assessed as fungal growth inhibition at 100 ug/ml by micro-dilution method relative to control; assay type: functional; conditions: read-out: GI
[3] = tested on: Penicillium ochrochloron; experiment: Antifungal activity against Penicillium ochrochloron assessed as fungal growth inhibition at 100 ug/ml by micro-dilution method relative to control; assay type: functional; conditions: read-out: GI
[4] = tested on: Aspergillus oryzae; experiment: Antifungal activity against Aspergillus oryzae assessed as fungal growth inhibition at 100 ug/ml by micro-dilution method relative to control; assay type: functional; conditions: read-out: GI
[5] = tested on: Botrytis cinerea; experiment: Antifungal activity against Botrytis cinerea assessed as fungal growth inhibition at 100 ug/ml by micro-dilution method relative to control; assay type: functional; conditions: read-out: GI
[6] = tested on: Alternaria alternata; experiment: Antifungal activity against Alternaria alternata assessed as fungal growth inhibition at 100 ug/ml by micro-dilution method relative to control; assay type: functional; conditions: read-out: GI
[7] = tested on: Cladosporium cladosporioides; experiment: Antifungal activity against Cladosporium cladosporioides assessed as fungal growth inhibition at 100 ug/ml by micro-dilution method relative to control; assay type: functional; conditions: read-out: GI
[8] = tested on: Sclerotinia sclerotiorum; experiment: Antifungal activity against Sclerotinia sclerotiorum assessed as fungal growth inhibition at 100 ug/ml by micro-dilution method relative to control; assay type: functional; conditions: read-out: GI
[9] = tested on: Geotrichum candidum; experiment: Antifungal activity against Geotrichum candidum assessed as fungal growth inhibition at 100 ug/ml by micro-dilution method relative to control; assay type: functional; conditions: read-out: GI
[10] = tested on: Pichia kudriavzevii; experiment: Antifungal activity against Candida krusei assessed as fungal growth inhibition at 100 ug/ml by micro-dilution method relative to control; assay type: functional; conditions: read-out: GI
[11] = tested on: Kluyveromyces marxianus; experiment: Antifungal activity against Candida pseudotropicalis assessed as fungal growth inhibition at 100 ug/ml by micro-dilution method relative to control; assay type: functional; conditions: read-out: GI
[12] = tested on: Candida tropicalis; experiment: Antifungal activity against Candida tropicalis assessed as fungal growth inhibition at 100 ug/ml by micro-dilution method relative to control; assay type: functional; conditions: read-out: GI
[13] = tested on: HEK293; experiment: Cytotoxicity against human HEK293 cells assessed as effect on cell viability measured after 72 hrs by MTS assay; assay type: cell-based; conditions: hek293, 72 h
[14] = tested on: Geotrichum candidum; experiment: Antifungal activity against Geotrichum candidum assessed as fungal growth inhibition by micro-dilution method; assay type: functional

Compound | inhibition of growth at 100 µg/mL [1] [%] | inhibition of growth at 100 µg/mL [2] [%] | inhibition of growth at 100 µg/mL [3] [%] | inhibition of growth at 100 µg/mL [4] [%] | inhibition of growth at 100 µg/mL [5] [%] | inhibition of growth at 100 µg/mL [6] [%] | inhibition of growth at 100 µg/mL [7] [%] | inhibition of growth at 100 µg/mL [8] [%] | inhibition of growth at 100 µg/mL [9] [%] | inhibition of growth at 100 µg/mL [10] [%] | inhibition of growth at 100 µg/mL [11] [%] | inhibition of growth at 100 µg/mL [12] [%] | Activity [13] | MIC50 [14] [µg/mL]
CC(C)=CCC/C(C)=C/C=N/NC(=O)[C@@H]1CCC(=O)N1 | 43 | 0 | 0 | 17 | 27 | 0 | 27 | 15 | 5 | 0 | 8 | 38 | Non-Toxic | –
O=C1CC[C@@H](C(=O)N/N=C/c2c(F)c(F)c(F)c(F)c2F)N1 | 40 | 0 | 21 | 4 | 17 | 0 | 11 | 5 | 36 | 0 | 0 | 0 | Non-Toxic | –
O=C1CC[C@@H](C(=O)N/N=C/C2CCCCC2)N1 | 0 | 36 | 23 | 8 | 8 | 8 | 1 | 0 | 62 | 0 | 30 | 0 | Non-Toxic | –
O=C1CC[C@@H](C(=O)N/N=C/c2ccc(C(F)(F)F)cc2)N1 | 55 | 44 | 44 | 0 | 0 | 21 | 11 | 0 | 85 | 21 | 21 | 17 | Non-Toxic | 63.7
COc1cc(/C=N/NC(=O)[C@@H]2CCC(=O)N2)cc(OC)c1OC | 0 | 26 | 32 | 0 | 0 | 29 | 0 | 0 | 0 | 50 | 18 | 0 | Non-Toxic | –
N#Cc1ccc(/C=N/NC(=O)[C@@H]2CCC(=O)N2)cc1 | 0 | 33 | 20 | 0 | 0 | 42 | 0 | 0 | 0 | 10 | 0 | 0 | Non-Toxic | –
O=C1CC[C@@H](C(=O)N/N=C/c2cccc(C(F)(F)F)c2Cl)N1 | 0 | 19 | 44 | 4 | 0 | 12 | 36 | 0 | 62 | 47 | 18 | 0 | Non-Toxic | –
COc1cc(/C=N/NC(=O)[C@@H]2CCC(=O)N2)ccc1O | 0 | 22 | 0 | 0 | 0 | 20 | 0 | 0 | 0 | 37 | 0 | 0 | Non-Toxic | –
C=C(C)C1CC=C(/C=N/NC(=O)[C@@H]2CCC(=O)N2)CC1 (some centres not stated) | 0 | 31 | 45 | 0 | 13 | 0 | 56 | 0 | 39 | 18 | 0 | 0 | Non-Toxic | –
O=C1CC[C@@H](C(=O)N/N=C/CCc2ccccc2)N1 | 0 | 39 | 29 | 0 | 6 | 0 | 53 | 0 | 68 | 0 | 12 | 17 | Non-Toxic | –
O=C1CC[C@@H](C(=O)N/N=C/c2c(Cl)cccc2Cl)N1 | 60 | 13 | 22 | 12 | 0 | 0 | 12 | 58 | 73 | 0 | 32 | 16 | Non-Toxic | 1.8
COc1ccc(/C=N/NC(=O)[C@@H]2CCC(=O)N2)cc1 | 0 | 36 | 23 | 24 | 0 | 3 | 35 | 38 | 25 | 40 | 40 | 49 | Non-Toxic | –
O=C1CC[C@@H](C(=O)N/N=C/c2ccccc2O)N1 | 40 | 14 | 30 | 7 | 0 | 38 | 0 | 21 | 70 | 38 | 18 | 7 | Non-Toxic | 62
O=C1CC[C@@H](C(=O)N/N=C/c2cc(F)ccc2F)N1 | 58 | 37 | 26 | 13 | 6 | 0 | 34 | 0 | 62 | 47 | 18 | 0 | Non-Toxic | –
CC1(C)C2CC=C(/C=N/NC(=O)[C@@H]3CCC(=O)N3)C1C2 (some centres not stated) | 0 | 39 | 0 | 4 | 0 | 0 | 0 | 0 | 0 | 0 | 18 | 0 | Non-Toxic | –
O=C1CCC(NNc2ccccn2)N1 (racemic) | 64 | 11 | 21 | 23 | 0 | 0 | 0 | 0 | 32 | 0 | 0 | 8 | Non-Toxic | –
OC(Cn1cncn1)(Cn1cncn1)c1ccc(F)cc1F [FLUCONAZOLE] | – | – | – | – | – | – | – | – | – | – | – | – | – | 1.6
